Values belong to the compound of their own block, whether it stands above or below them.
Tests used:
[1] = target: T1, Serine/threonine-protein kinase 17A (Homo sapiens) (UniProt Q9UEE5); assay: Selectivity interaction (Kinase panel (DSF assay)) EUB0001489b STK17A
T1 sequence (whole entry): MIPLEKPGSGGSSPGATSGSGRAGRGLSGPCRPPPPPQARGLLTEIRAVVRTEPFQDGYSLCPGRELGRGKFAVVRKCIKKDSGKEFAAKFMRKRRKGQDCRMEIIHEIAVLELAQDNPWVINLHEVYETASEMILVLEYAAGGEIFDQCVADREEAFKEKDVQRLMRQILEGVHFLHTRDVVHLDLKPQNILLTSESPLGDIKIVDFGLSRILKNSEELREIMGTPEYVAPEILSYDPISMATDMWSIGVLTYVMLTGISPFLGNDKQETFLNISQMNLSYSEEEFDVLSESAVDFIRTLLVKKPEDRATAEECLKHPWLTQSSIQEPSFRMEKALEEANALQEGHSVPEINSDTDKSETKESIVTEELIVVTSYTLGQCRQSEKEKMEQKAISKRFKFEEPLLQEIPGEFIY

[2] = target: Macrophage colony-stimulating factor 1 receptor (Homo sapiens) (UniProt P07333); assay: Selectivity interaction (KinomeScan (DiscoverX)) EUB0000595a CSF1R; settings: at 10 µM
Chain of Macrophage colony-stimulating factor 1 receptor (Homo sapiens) (P07333 whole entry): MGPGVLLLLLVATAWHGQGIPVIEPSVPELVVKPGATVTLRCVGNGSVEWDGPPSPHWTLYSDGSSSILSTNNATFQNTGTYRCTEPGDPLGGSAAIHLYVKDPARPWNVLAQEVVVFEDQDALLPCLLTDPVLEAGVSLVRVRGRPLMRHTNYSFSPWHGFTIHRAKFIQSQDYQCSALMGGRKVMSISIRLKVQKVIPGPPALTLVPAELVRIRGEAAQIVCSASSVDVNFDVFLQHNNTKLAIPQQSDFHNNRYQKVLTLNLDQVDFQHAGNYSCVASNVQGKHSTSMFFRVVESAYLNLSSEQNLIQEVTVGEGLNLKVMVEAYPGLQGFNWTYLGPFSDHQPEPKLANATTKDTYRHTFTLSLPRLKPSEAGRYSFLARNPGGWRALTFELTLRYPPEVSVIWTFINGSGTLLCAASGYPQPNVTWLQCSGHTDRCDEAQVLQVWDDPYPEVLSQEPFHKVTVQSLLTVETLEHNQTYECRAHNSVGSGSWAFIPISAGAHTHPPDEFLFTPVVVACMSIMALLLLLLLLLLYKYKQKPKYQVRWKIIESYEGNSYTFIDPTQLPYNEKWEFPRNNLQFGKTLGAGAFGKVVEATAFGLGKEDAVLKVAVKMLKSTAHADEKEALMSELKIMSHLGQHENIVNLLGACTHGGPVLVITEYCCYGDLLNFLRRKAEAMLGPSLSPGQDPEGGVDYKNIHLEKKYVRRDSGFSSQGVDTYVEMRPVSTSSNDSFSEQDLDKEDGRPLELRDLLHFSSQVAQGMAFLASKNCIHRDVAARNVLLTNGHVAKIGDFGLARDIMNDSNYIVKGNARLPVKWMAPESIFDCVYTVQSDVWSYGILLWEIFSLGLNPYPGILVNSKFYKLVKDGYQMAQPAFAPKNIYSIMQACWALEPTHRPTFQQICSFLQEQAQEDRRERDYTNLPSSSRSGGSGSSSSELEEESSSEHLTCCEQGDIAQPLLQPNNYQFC

[3] = target: T2, Phosphatidylinositol 5-phosphate 4-kinase type-2 gamma (Homo sapiens) (UniProt Q8TBX8); assay: Selectivity interaction (KinomeScan (DiscoverX)) EUB0001079a PIP4K2C; settings: at 1 µM
T2 sequence (whole entry): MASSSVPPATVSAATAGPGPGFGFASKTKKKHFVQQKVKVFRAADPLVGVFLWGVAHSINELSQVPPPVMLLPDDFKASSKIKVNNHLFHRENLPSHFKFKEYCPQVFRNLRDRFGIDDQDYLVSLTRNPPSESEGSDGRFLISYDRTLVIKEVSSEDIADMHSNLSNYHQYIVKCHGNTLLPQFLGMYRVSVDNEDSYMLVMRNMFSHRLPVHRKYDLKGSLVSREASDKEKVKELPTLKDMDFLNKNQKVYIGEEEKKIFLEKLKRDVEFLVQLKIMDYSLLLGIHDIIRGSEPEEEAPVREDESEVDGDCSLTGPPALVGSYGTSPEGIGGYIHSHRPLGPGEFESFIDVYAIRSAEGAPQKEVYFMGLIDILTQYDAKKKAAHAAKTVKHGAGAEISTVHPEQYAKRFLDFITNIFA

[4] = target: Angiopoietin-1 receptor (Homo sapiens) (UniProt Q02763); assay: Selectivity interaction (Upstate Kinase Profiler service (Millipore)) EUB0000056c TEK; settings: at 1 µM
Chain of Angiopoietin-1 receptor (Homo sapiens) (Q02763 whole entry): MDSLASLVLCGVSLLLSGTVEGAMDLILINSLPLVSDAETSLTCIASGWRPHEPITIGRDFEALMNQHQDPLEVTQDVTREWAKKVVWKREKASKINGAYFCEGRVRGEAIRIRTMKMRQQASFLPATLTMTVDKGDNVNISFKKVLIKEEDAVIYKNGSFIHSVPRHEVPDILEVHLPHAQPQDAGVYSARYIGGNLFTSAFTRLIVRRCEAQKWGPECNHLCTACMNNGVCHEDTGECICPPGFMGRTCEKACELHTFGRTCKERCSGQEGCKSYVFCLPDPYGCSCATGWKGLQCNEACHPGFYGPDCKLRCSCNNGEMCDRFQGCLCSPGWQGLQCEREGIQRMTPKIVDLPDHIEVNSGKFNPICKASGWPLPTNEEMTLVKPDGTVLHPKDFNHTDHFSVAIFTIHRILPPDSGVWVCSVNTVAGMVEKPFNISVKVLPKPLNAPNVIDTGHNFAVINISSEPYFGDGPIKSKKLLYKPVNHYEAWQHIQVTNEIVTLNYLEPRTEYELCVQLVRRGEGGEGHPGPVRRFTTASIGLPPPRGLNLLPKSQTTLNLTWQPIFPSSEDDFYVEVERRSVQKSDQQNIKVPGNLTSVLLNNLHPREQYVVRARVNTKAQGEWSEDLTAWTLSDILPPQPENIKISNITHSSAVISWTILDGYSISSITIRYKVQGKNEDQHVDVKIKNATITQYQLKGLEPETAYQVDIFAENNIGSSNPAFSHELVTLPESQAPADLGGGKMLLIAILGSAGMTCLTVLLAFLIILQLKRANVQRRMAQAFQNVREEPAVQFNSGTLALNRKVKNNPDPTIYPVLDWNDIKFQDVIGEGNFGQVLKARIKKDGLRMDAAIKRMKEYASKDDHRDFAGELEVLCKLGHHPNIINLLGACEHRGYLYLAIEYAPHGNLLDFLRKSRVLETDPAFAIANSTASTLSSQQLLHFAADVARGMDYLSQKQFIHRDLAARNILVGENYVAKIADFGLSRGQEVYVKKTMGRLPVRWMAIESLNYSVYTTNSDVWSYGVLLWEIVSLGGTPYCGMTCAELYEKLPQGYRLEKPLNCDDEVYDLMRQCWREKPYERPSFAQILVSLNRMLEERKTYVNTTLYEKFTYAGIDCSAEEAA

[5] = target: MAP/microtubule affinity-regulating kinase 3 (Homo sapiens) (UniProt P27448); assay: Selectivity interaction (KinomeScan (DiscoverX)) EUB0000655a MARK3; settings: at 10 µM
Chain of MAP/microtubule affinity-regulating kinase 3 (Homo sapiens) (P27448 whole entry, looked up): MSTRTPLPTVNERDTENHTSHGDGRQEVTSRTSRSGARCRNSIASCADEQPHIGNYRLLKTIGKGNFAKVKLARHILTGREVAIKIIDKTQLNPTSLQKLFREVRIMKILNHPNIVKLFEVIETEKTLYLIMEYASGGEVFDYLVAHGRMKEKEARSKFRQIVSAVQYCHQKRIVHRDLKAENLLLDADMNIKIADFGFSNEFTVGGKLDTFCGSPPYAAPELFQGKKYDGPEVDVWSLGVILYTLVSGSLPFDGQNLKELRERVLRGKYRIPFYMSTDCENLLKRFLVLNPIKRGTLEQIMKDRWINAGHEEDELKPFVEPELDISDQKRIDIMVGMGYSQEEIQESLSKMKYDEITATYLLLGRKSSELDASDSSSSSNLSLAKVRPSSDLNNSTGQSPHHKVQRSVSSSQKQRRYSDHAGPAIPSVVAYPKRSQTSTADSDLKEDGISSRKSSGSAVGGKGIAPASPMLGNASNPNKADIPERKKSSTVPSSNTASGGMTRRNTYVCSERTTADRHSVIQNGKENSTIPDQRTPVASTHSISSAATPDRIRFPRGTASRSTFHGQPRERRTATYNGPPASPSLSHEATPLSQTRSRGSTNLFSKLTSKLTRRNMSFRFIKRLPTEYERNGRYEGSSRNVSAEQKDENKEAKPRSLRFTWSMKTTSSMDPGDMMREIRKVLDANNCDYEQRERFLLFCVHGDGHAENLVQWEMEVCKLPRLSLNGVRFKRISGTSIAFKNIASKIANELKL

[6] = target: T3, Serine/threonine-protein kinase Nek9 (Homo sapiens) (UniProt Q8TD19); assay: Selectivity interaction (KinomeScan (DiscoverX)) EUB0000655a NEK9; settings: at 10 µM
T3 sequence (whole entry): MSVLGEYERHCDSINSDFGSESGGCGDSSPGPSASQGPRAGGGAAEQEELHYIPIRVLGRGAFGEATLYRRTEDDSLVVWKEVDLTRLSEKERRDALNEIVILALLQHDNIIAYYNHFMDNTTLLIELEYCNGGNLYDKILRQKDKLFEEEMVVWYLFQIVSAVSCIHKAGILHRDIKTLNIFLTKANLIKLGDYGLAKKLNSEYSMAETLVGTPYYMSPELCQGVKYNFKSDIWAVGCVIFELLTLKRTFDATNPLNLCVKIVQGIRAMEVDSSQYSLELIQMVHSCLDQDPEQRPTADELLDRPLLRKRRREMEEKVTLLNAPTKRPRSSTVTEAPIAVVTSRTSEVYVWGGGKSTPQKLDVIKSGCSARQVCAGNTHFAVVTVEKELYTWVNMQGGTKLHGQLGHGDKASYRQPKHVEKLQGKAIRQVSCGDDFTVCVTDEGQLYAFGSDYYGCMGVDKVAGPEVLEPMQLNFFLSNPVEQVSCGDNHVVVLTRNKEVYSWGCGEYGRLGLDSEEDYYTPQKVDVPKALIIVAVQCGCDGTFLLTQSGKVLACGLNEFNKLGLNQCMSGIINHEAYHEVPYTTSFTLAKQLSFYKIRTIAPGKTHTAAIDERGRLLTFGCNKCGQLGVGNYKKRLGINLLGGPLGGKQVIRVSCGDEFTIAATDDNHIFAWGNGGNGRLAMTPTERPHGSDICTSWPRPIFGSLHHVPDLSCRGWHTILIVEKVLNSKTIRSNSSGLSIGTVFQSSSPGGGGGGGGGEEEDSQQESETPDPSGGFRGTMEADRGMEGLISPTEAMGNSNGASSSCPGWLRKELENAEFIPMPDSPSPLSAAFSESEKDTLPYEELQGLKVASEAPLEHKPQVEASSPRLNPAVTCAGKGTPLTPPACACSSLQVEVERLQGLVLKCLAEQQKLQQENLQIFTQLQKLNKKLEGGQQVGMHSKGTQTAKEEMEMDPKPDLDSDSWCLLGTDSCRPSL

[7] = target: Serine/threonine-protein kinase VRK2 (Homo sapiens) (UniProt Q86Y07); assay: Selectivity interaction (KinomeScan (DiscoverX)) EUB0000607a VRK2; settings: at 10 µM
Chain of Serine/threonine-protein kinase VRK2 (Homo sapiens) (Q86Y07 whole entry): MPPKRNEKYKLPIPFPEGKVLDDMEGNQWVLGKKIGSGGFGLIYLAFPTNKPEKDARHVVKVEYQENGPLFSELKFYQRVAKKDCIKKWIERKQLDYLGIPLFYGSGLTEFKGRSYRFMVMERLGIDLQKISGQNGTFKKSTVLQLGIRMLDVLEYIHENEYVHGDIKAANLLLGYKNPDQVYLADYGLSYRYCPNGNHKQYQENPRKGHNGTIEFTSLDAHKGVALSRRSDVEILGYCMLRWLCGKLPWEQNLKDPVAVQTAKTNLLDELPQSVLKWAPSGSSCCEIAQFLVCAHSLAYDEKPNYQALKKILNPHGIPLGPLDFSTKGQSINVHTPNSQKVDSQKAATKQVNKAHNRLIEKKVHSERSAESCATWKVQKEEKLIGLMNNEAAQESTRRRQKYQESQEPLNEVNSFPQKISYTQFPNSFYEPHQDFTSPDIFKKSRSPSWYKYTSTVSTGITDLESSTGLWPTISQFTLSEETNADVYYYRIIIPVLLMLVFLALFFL

[8] = target: Calcium/calmodulin-dependent protein kinase kinase 1 (Homo sapiens) (UniProt Q8N5S9); assay: Selectivity interaction (KinomeScan (DiscoverX)) EUB0000666a CAMKK1; settings: at 10 µM
Chain of Calcium/calmodulin-dependent protein kinase kinase 1 (Homo sapiens) (Q8N5S9 whole entry, looked up): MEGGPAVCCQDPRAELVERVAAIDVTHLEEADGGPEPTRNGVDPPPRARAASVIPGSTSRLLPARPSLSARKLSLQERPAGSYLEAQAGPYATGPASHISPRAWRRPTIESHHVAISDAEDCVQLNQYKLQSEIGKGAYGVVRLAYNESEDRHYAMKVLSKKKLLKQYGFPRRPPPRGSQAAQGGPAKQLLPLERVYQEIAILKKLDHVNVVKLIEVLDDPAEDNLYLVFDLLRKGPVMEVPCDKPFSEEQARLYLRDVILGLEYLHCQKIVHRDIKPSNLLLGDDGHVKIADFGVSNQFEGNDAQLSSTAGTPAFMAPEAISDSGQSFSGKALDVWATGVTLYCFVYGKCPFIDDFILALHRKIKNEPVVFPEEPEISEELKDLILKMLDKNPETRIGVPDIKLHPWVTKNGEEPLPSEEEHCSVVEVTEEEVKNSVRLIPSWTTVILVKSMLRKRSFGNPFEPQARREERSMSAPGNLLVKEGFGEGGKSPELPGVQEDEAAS

[9] = system: Tyrosine-protein kinase ABL1 (Homo sapiens), P00519 [H396P]; assay: Selectivity interaction (KinomeScan (DiscoverX)) EUB0000666a ABL1; settings: at 10 µM
[10] = target: T4, Serine/threonine-protein kinase Nek2 (Homo sapiens) (UniProt P51955); assay: Selectivity interaction (Kinase panel (DSF assay)) EUB0001558a NEK2
T4 sequence (whole entry): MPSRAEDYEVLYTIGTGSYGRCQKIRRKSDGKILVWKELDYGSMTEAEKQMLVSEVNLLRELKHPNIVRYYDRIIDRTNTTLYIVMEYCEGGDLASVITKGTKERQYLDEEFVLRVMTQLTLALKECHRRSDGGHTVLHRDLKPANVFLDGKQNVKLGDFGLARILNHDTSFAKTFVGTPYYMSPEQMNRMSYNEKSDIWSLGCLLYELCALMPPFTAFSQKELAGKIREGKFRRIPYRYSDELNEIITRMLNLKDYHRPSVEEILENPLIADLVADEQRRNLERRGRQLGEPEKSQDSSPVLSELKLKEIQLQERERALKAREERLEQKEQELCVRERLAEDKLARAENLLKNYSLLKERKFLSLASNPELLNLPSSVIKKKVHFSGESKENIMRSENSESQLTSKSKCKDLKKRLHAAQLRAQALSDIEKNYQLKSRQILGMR

dTM [1]: 1.5 K
SMILES: CN1CCN(C(=O)c2ccc3cc2OCCOCCNc2ccn4ncc-3c4n2)CC1

SMILES: COCC(=O)NC/C=C/c1ccc2ncnc(Nc3ccc(Oc4ccc(C)nc4)c(C)c3)c2c1 [CP-724714]
% of control [2]: 100%

SMILES: Nc1cnc(N2CCc3cc(S(=O)(=O)Nc4c(F)cc(Cl)cc4F)cc(N4CCCC4=O)c32)nc1 [TP-020n]
% of control [3]: 100%

% of inhibition [4]: -31%
SMILES: Cc1ccc(-c2ccc3c(ccc4sc5c(c43)NC[C@@H](C)NC5=O)n2)cn1

SMILES: CN(C)CCOc1ccc(-c2nc(-c3ccncc3)c(-c3ccc4c(c3)CC/C4=N\O)[nH]2)cc1
% of control [5]: 95% | % of control [6]: 100%

SMILES: CNC(=O)Nc1ccc(-c2nc(N3CC4CCC(C3)O4)c3cnn(C4CCC5(CC4)OCCO5)c3n2)cc1
% of control [7]: 100%

SMILES: O=C(NOC[C@H](O)CO)c1ccc(F)c(F)c1Nc1ccc(I)cc1F
% of control [8]: 100% | % of control [9]: 100%

SMILES: CC(C)(O)[C@H](F)CN1Cc2cc(NC(=O)c3cnn4cccnc34)c(N3CCOCC3)cc2C1=O
dTM [10]: 0.4 K
